Measurements taken from ChEMBL document CHEMBL5518163, “Brazilin-7-acetate, a novel potential drug of Parkinson's disease, hinders the formation of α-synuclein fibril, mitigates cytotoxicity, and decreases oxidative stress” (Eur J Med Chem, 2024).
The source made the active and inactive calls. No cut-off for these calls is given here.

Assays:
[1] = target: Alpha-synuclein (Homo sapiens) (UniProt P37840); test: Inhibition of recombinant alpha-synuclein (unknown origin) fibrillation at 1 to 20 uM measured after 30 mins by ThT fluorescence based spectrofluorometer analysis relative to control; details: dose 1-20 µM
Caenorhabditis elegans [2] = test: Inhibition of oxidative stress in Caenorhabditis elegans NL5901 expressing YFP-tagged alpha-synuclein assessed as decrease in ROS level by measuring average fluorescence intensity at 100 uM incubated for 5 days by DHE staining based confocal laser scanning microscope analysis (reference value: 1600%); assay type: functional; parameters: scale not given: the % may be the effect or the level left; details: time 5 day
PC-12 [3] = test: Protection against alpha-synuclein induced rat PC12 cells death assessed as survival rate at alpha-synuclein to compound molar ratio 1:2 pre-incubated with alpha-synuclein for 10 days followed by cell addition and measured after 48 hrs by MTT assay (reference value: 58.07%); assay type: functional
Caenorhabditis elegans [4] = test: Antioxidant activity against transgenic Caenorhabditis elegans NL5901 expressing YFP-tagged alpha-synuclein assessed as increase in lipid content by measuring fluorescence intensity at 100 uM incubated for 5 days by Nile Red staining based confocal laser scanning microscope analysis (reference value: 41.32 %); assay type: functional; details: time 5 day
Caenorhabditis elegans [5] = test: Antioxidant activity against transgenic Caenorhabditis elegans NL5901 expressing YFP-tagged alpha-synuclein assessed as decrease in MDA content at 100 uM incubated for 5 days (reference value: 288.94 %); assay type: functional; parameters: scale not given: the % may be the effect or the level left; details: time 5 day
PC-12 [6] = test: Cytotoxicity against rat PC12 cells assessed as survival rate at 25 uM incubated for 10 days by MTT assay relative to control; assay type: functional; details: time 10 day
Caenorhabditis elegans [7] = test: Antioxidant activity in transgenic Caenorhabditis elegans NL5901 expressing YFP-tagged alpha-synuclein assessed as increase in SOD activity at 100 uM incubated for 5 days (reference value: 33.32 %); assay type: functional; details: time 5 day
Caenorhabditis elegans [8] = test: Inhibition of oxidative stress in transgenic Caenorhabditis elegans NL5901 expressing YFP-tagged alpha-synuclein assessed as reduction in ROS level by measuring fluorescence intensity at 100 uM incubated for 5 days by DHE staining based confocal laser scanning microscope analysis; assay type: functional, organism-based; details: time 5.0 day
Caenorhabditis elegans [9] = test: In vivo inhibition of alpha-synuclein aggregation in transgenic Caenorhabditis elegans NL5901 expressing YFP-tagged alpha-synuclein at 100 uM under L4 stage to adult stage on day 5 and 10 by fluorescence based confocal microscope analysis; assay type: functional; details: time 5.0 day
Caenorhabditis elegans [10] = test: Improvement in movement disorder in transgenic Caenorhabditis elegans NL5901 expressing YFP-tagged alpha-synuclein assessed as increase in number of bends at 100 uM measured on day 10 (reference value: 11.1); assay type: functional; details: time 5 day
PC-12 [11] = test: Protection against alpha-synuclein induced rat PC12 cells death assessed as survival rate at alpha-synuclein to compound molar ratio 1:0.5 pre-incubated with alpha-synuclein for 10 days followed by cell addition and measured after 48 hrs by MTT assay (reference value: 58.07%); assay type: functional
Caenorhabditis elegans [12] = test: Improvement in movement disorder in transgenic Caenorhabditis elegans NL5901 expressing YFP-tagged alpha-synuclein assessed as increase in number of bends at 100 uM measured on day 5 (reference value: 29.5); assay type: functional; details: time 5 day
Caenorhabditis elegans [13] = test: Improvement in life span of transgenic Caenorhabditis elegans NL5901 expressing YFP-tagged alpha-synuclein assessed as increase in average lifespan at 100 uM (reference value: 8.52 day); assay type: functional; details: time 5 day
PC-12 [14] = test: Cytotoxicity against rat PC12 cells assessed as survival rate at 100 uM incubated for 10 days by MTT assay relative to control; assay type: functional; details: time 10 day
PC-12 [15] = test: Protection against alpha-synuclein induced rat PC12 cells death assessed as survival rate at alpha-synuclein to compound molar ratio 1:1 pre-incubated with alpha-synuclein for 10 days followed by cell addition and measured after 48 hrs by MTT assay (reference value: 58.07%); assay type: functional
[16] = In vivo inhibition of alpha-synuclein aggregation in transgenic Caenorhabditis elegans NL5901 expressing YFP-tagged alpha-synuclein assessed as quantity of plaques at 100 uM on day 10 by fluorescence based confocal microscope analysis (reference value: 31.5); assay type: functional; details: time 5 day
[17] = In vivo inhibition of alpha-synuclein aggregation in transgenic Caenorhabditis elegans NL5901 expressing YFP-tagged alpha-synuclein assessed as quantity of plaques at 100 uM on day 5 by fluorescence based confocal microscope analysis (reference value: 24.7); assay type: functional; details: time 5 day
Caenorhabditis elegans [18] = test: Improvement in life span of transgenic Caenorhabditis elegans NL5901 expressing YFP-tagged alpha-synuclein assessed as increase in lifespan at 100 uM (reference value: 16 day); assay type: functional; details: time 5 day
PC-12 [19] = test: Cytotoxicity against rat PC12 cells assessed as survival rate at 50 uM incubated for 10 days by MTT assay relative to control; assay type: functional; details: time 10 day
Caenorhabditis elegans [20] = test: In vivo inhibition of alpha-synuclein aggregation in transgenic Caenorhabditis elegans NL5901 expressing YFP-tagged alpha-synuclein assessed as reduction in number of alpha-synuclein aggregates plaques at 100 uM incubated for 5 days by fluorescence based confocal microscope analysis; assay type: functional; details: time 5.0 day
Caenorhabditis elegans [21] = test: Improvement in life span of transgenic Caenorhabditis elegans NL5901 expressing YFP-tagged alpha-synuclein assessed as decrease in death rate at 100 uM incubated for 5 days; assay type: functional, organism-based; details: time 5.0 day
Caenorhabditis elegans [22] = test: Antioxidant activity against transgenic Caenorhabditis elegans NL5901 expressing YFP-tagged alpha-synuclein assessed as increase in GSH-PX activity at 100 uM incubated for 5 days (reference value: 46.36 %); assay type: functional; details: time 5 day
PC-12 [23] = test: Cytotoxicity against rat PC12 cells assessed as survival rate at 50 to 100 uM incubated for 10 days by MTT assay relative to control; assay type: functional; details: dose 50-100 µM, time 10 day
Caenorhabditis elegans [24] = test: Antioxidant activity against transgenic Caenorhabditis elegans NL5901 expressing YFP-tagged alpha-synuclein assessed as decrease in MDA content relative to control; assay type: functional; parameters: scale not given: the % may be the effect or the level left
Caenorhabditis elegans [25] = test: Antioxidant activity against transgenic Caenorhabditis elegans NL5901 expressing YFP-tagged alpha-synuclein assessed as increase in lipid content relative to control; assay type: functional

## COc1ccc(-c2coc3cc(O)ccc3c2=O)cc1O
[1]
  inhibition: 82.3%

## CC(=O)Oc1ccc2c(c1)OC[C@]1(O)Cc3cc(O)c(O)cc3[C@H]21
Caenorhabditis elegans [2]
  Activity: 723.6%
PC-12 [3]
  Activity: 93.51%
Caenorhabditis elegans [4]
  Activity: 57.69%
Caenorhabditis elegans [5]
  Activity: 133%
PC-12 [6]
  Activity: 82.15%
Caenorhabditis elegans [7]
  Activity: 60%
Caenorhabditis elegans [8]
  Activity: Active
Caenorhabditis elegans [9]
  inhibition: Active
Caenorhabditis elegans [10]
  Activity: 7.6
PC-12 [11]
  Activity: 72.26%
Caenorhabditis elegans [12]
  Activity: 8.4
Caenorhabditis elegans [13]
  ILS: 10.35 days
PC-12 [14]
  Activity: 60.46%
PC-12 [15]
  Activity: 85.21%
[16]
  Activity: 16.2
[17]
  Activity: 7.2
Caenorhabditis elegans [18]
  ILS: 19 days
PC-12 [19]
  Activity: 66.74%
Caenorhabditis elegans [20]
  inhibition: Active
Caenorhabditis elegans [21]
  Activity: Active
Caenorhabditis elegans [22]
  Activity: 81.81%

## Oc1ccc2c(c1)OC[C@]1(O)Cc3cc(O)c(O)cc3[C@H]21 [BRAZILIN]
PC-12 [6]
  Activity: 82.15%
PC-12 [23]
  Activity: ~20%
PC-12 [14]
  Activity: 60.46%
PC-12 [19]
  Activity: 66.74%

## O=C(/C=C/c1ccc(O)c(O)c1)O[C@@H]1C[C@](O)(C(=O)O)C[C@@H](O)[C@H]1O [CHLOROGENIC ACID]
Caenorhabditis elegans [24]
  Activity: ~50%
Caenorhabditis elegans [25]
  Activity: ~5%
